Source: US11076594B2, “Pyrazolone compound or salt thereof, preparation method therefor, herbicide composition and use thereof” (QINGDAO KINGAGROOT CHEMICAL COMPOUNDS CO., LTD., priority 2015, dated 2021)
One block for each compound: values may come before it.

Legend:
Format in all cases: in vivo
rice = assay: post-emergence stage experiment, crop (Table 1); design: key: Level 10: completely dead; Level 9: above 95% growth control rate; Level 8: above 90% growth control rate; Level 7: above 80% growth control rate; Level 6: above 70% growth control rate; Level 5: above 60% growth control rate; Level 4: above 50% growth control rate; Level 3: above 20% growth control rate; Level 2: 5%-20% growth control rate; Level 1: below 5% growth control rate; conditions: post-emergence spray at 4-5 leaf stage, 250 g/ha active ingredient with 450 kg/ha water, rated after 3 weeks in greenhouse
How it was run: (§1)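 Post-emergence spray: compounds dissolved in acetone, Tween 80 added, diluted with water, applied to plants at 4-5 leaf stage. Plants kept 3 wk in greenhouse; activity scored as fresh-weight control rate.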

alopecurus japonicas = assay: wheat field resistant weed control, greenhouse spray at 4 leaf stage; design: key: Level 10: completely dead; Level 9: above 95% growth control rate; Level 8: above 90% growth control rate; Level 7: above 80% growth control rate; Level 6: above 70% growth control rate; Level 5: above 60% growth control rate; Level 4: above 50% growth control rate; Level 3: above 20% growth control rate; Level 2: 5%-20% growth control rate; Level 1: below 5% growth control rate; conditions: sprayed at 4 leaf stage, 4 weeks after treatment, resistant to ALS and ACCase inhibitor herbicides
Method: The activity level standard of harmful plant destruction (i.e. growth control rate) is as follows:
The above described growth control rate is fresh weight control rate.
The seeds of alopecurus japonicas, flixweed, shepherd's purse, corn gromwell, chickweed, beckmannia syzigachne, and annual ryegrass and wheat seeds were put into a plastic pot loaded with soil, and then covered with 0.5-2 cm soil, the seeds were allowed to grow in good greenhouse environment. The test plants were treated at 4 leaf stage 2-3 weeks after sowing. The test compounds of the present invention were dissolved in acetone respectively, then added with methyl oleate emulsion and diluted by certain amount of water to certain concentration. The solution was sprayed to the plant with a sprayer. Then the plants were cultured for 4 weeks in greenhouse.

chickweed = assay: wheat field resistant broadleaf weed control, greenhouse spray at 4 leaf stage; design: key: Level 10: completely dead; Level 9: above 95% growth control rate; Level 8: above 90% growth control rate; Level 7: above 80% growth control rate; Level 6: above 70% growth control rate; Level 5: above 60% growth control rate; Level 4: above 50% growth control rate; Level 3: above 20% growth control rate; Level 2: 5%-20% growth control rate; Level 1: below 5% growth control rate; conditions: 250 g/ha of the active substance; 4 weeks after treatment; ALS inhibitor resistant
How it was run: (§2)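 Read-out: fresh weight control rate, scored 4 weeks after a post-emergence spray. Treatment at 4 leaf stage (2-3 weeks after sowing); compound dissolved in acetone, with methyl oleate emulsion, diluted with water.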

corn gromwell = assay: as above; design: key: Level 10: completely dead; Level 9: above 95% growth control rate; Level 8: above 90% growth control rate; Level 7: above 80% growth control rate; Level 6: above 70% growth control rate; Level 5: above 60% growth control rate; Level 4: above 50% growth control rate; Level 3: above 20% growth control rate; Level 2: 5%-20% growth control rate; Level 1: below 5% growth control rate; conditions: 250 g/ha of the active substance; 4 weeks after treatment; ALS inhibitor resistant
How it was run: as §2

shepherd's purse = assay: as above; design: key: Level 10: completely dead; Level 9: above 95% growth control rate; Level 8: above 90% growth control rate; Level 7: above 80% growth control rate; Level 6: above 70% growth control rate; Level 5: above 60% growth control rate; Level 4: above 50% growth control rate; Level 3: above 20% growth control rate; Level 2: 5%-20% growth control rate; Level 1: below 5% growth control rate; conditions: 250 g/ha of the active substance; 4 weeks after treatment; ALS inhibitor resistant
How it was run: as §2

flixweed = assay: as above; design: key: Level 10: completely dead; Level 9: above 95% growth control rate; Level 8: above 90% growth control rate; Level 7: above 80% growth control rate; Level 6: above 70% growth control rate; Level 5: above 60% growth control rate; Level 4: above 50% growth control rate; Level 3: above 20% growth control rate; Level 2: 5%-20% growth control rate; Level 1: below 5% growth control rate; conditions: 250 g/ha of the active substance; 4 weeks after treatment; ALS inhibitor resistant
How it was run: as §2

corn = assay: post-emergence stage experiment, crop (Table 1); conditions: post-emergence spray at 4-5 leaf stage, 250 g/ha active ingredient with 450 kg/ha water, rated after 3 weeks in greenhouse
How it was run: as §1

wheat [1] = assay: post-emergence stage experiment, crop (Table 1); conditions: post-emergence spray at 4-5 leaf stage, 250 g/ha active ingredient with 450 kg/ha water, rated after 3 weeks in greenhouse
How it was run: as §1

foxtail = assay: weed control effect in post-emergence stage (Table 1); design: key: Level 10: completely dead; Level 9: above 95% growth control rate; Level 8: above 90% growth control rate; Level 7: above 80% growth control rate; Level 6: above 70% growth control rate; Level 5: above 60% growth control rate; Level 4: above 50% growth control rate; Level 3: above 20% growth control rate; Level 2: 5%-20% growth control rate; Level 1: below 5% growth control rate; conditions: post-emergence spray at 4-5 leaf stage, 250 g/ha active ingredient with 450 kg/ha water, rated after 3 weeks in greenhouse
How it was run: as §1

rorippa indica = assay: as above; design: key: Level 10: completely dead; Level 9: above 95% growth control rate; Level 8: above 90% growth control rate; Level 7: above 80% growth control rate; Level 6: above 70% growth control rate; Level 5: above 60% growth control rate; Level 4: above 50% growth control rate; Level 3: above 20% growth control rate; Level 2: 5%-20% growth control rate; Level 1: below 5% growth control rate; conditions: post-emergence spray at 4-5 leaf stage, 250 g/ha active ingredient with 450 kg/ha water, rated after 3 weeks in greenhouse
How it was run: as §1

Indian mallow = assay: as above; design: key: Level 10: completely dead; Level 9: above 95% growth control rate; Level 8: above 90% growth control rate; Level 7: above 80% growth control rate; Level 6: above 70% growth control rate; Level 5: above 60% growth control rate; Level 4: above 50% growth control rate; Level 3: above 20% growth control rate; Level 2: 5%-20% growth control rate; Level 1: below 5% growth control rate; conditions: post-emergence spray at 4-5 leaf stage, 250 g/ha active ingredient with 450 kg/ha water, rated after 3 weeks in greenhouse
How it was run: as §1

crab grass = assay: as above; design: key: Level 10: completely dead; Level 9: above 95% growth control rate; Level 8: above 90% growth control rate; Level 7: above 80% growth control rate; Level 6: above 70% growth control rate; Level 5: above 60% growth control rate; Level 4: above 50% growth control rate; Level 3: above 20% growth control rate; Level 2: 5%-20% growth control rate; Level 1: below 5% growth control rate; conditions: post-emergence spray at 4-5 leaf stage, 250 g/ha active ingredient with 450 kg/ha water, rated after 3 weeks in greenhouse
How it was run: as §1

echinochloa = assay: as above; design: key: Level 10: completely dead; Level 9: above 95% growth control rate; Level 8: above 90% growth control rate; Level 7: above 80% growth control rate; Level 6: above 70% growth control rate; Level 5: above 60% growth control rate; Level 4: above 50% growth control rate; Level 3: above 20% growth control rate; Level 2: 5%-20% growth control rate; Level 1: below 5% growth control rate; conditions: post-emergence spray at 4-5 leaf stage, 250 g/ha active ingredient with 450 kg/ha water, rated after 3 weeks in greenhouse
How it was run: as §1

bidens bipinnata = assay: as above; design: key: Level 10: completely dead; Level 9: above 95% growth control rate; Level 8: above 90% growth control rate; Level 7: above 80% growth control rate; Level 6: above 70% growth control rate; Level 5: above 60% growth control rate; Level 4: above 50% growth control rate; Level 3: above 20% growth control rate; Level 2: 5%-20% growth control rate; Level 1: below 5% growth control rate; conditions: post-emergence spray at 4-5 leaf stage, 250 g/ha active ingredient with 450 kg/ha water, rated after 3 weeks in greenhouse
How it was run: as §1

wheat [2] = assay: wheat field test, crop selectivity, greenhouse spray at 4 leaf stage; conditions: 4 weeks after treatment
How it was run: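 Compounds in acetone were mixed with methyl oleate emulsion, diluted with water and applied with a sprayer to greenhouse plants at the 4 leaf stage. Growth control, expressed as fresh weight control rate, was assessed after 4 weeks of further culture.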

[3] = 250 g/ha of the active substance

effect on crop, Wheat (level) (wheat [1]): 0
Compound: Cn1nc(C2CC2)c(C(=O)c2ccc(C(F)(F)F)c(N3CCCCC3=O)c2Cl)c1O [Compound 046]
effect on crop, Rice (level) (rice): 5 (Level 5: above 60% growth control rate) | Alopecurus japonicas weed controlling effect (activity level) (alopecurus japonicas; 1 g/mu): 6 (Level 6: above 70% growth control rate) | Alopecurus japonicas weed controlling effect (activity level) (alopecurus japonicas; 2 g/mu): 9 (Level 9: above 95% growth control rate) | Alopecurus japonicas weed controlling effect (activity level) (alopecurus japonicas; 4 g/mu): 10 | Alopecurus japonicas weed controlling effect (activity level) (alopecurus japonicas; 8 g/mu): 10 | chickweed weed controlling effect (activity level) (chickweed): 10 | corn gromwell weed controlling effect (activity level) (corn gromwell): 10 | shepherd's purse weed controlling effect (activity level) (shepherd's purse): 10 | flixweed weed controlling effect (activity level) (flixweed): 10 | effect on crop, Corn (level) (corn): 4 (Level 4: above 50% growth control rate) | weed control effect, Green foxtail (level) (foxtail): 10 | weed control effect, Rorippa indica (level) (rorippa indica): 10 | weed control effect, Indian mallow (level) (Indian mallow): 10 | weed control effect, Crab grass (level) (crab grass): 6 (Level 6: above 70% growth control rate) | weed control effect, Echinochloa (level) (echinochloa): 6 (Level 6: above 70% growth control rate) | weed control effect, Bidens bipinnata (level) (bidens bipinnata): 2 (Level 2: 5%-20% growth control rate) | Wheat (activity level, crop damage) (wheat [2]; 2 g/mu, sprayed at 4 leaf stage): 0 | Wheat (activity level, crop damage) (wheat [2]; 4 g/mu, sprayed at 4 leaf stage): 0 | Wheat (activity level, crop damage) (wheat [2]; 8 g/mu, sprayed at 4 leaf stage): 0 | Wheat (activity level, crop damage) (wheat [2]; 16 g/mu, sprayed at 4 leaf stage): 0 | Wheat (activity level, crop damage) (wheat [2]; 32 g/mu, sprayed at 4 leaf stage): 1 (Level 1: below 5% growth control rate) | Wheat (activity level, crop damage) (wheat [2]; [3]): 0

effect on crop, Rice (level) (rice): 10
Compound: CCn1nc(C2CC2)c(C(=O)c2ccc(C(F)(F)F)c(-n3cccn3)c2Cl)c1O [Compound 134]
chickweed weed controlling effect (activity level) (chickweed): 10 | corn gromwell weed controlling effect (activity level) (corn gromwell): 10 | shepherd's purse weed controlling effect (activity level) (shepherd's purse): 10 | flixweed weed controlling effect (activity level) (flixweed): 10 | effect on crop, Corn (level) (corn): 3 (Level 3: above 20% growth control rate) | effect on crop, Wheat (level) (wheat [1]): 1 (Level 1: below 5% growth control rate) | weed control effect, Green foxtail (level) (foxtail): 10 | weed control effect, Rorippa indica (level) (rorippa indica): 10 | weed control effect, Indian mallow (level) (Indian mallow): 10 | weed control effect, Crab grass (level) (crab grass): 2 (Level 2: 5%-20% growth control rate) | weed control effect, Echinochloa (level) (echinochloa): 6 (Level 6: above 70% growth control rate) | weed control effect, Bidens bipinnata (level) (bidens bipinnata): 9 (Level 9: above 95% growth control rate) | Wheat (activity level, crop damage) (wheat [2]; [3]): 1 (Level 1: below 5% growth control rate)

effect on crop, Corn (level) (corn): 2 (Level 2: 5%-20% growth control rate)
Compound: CCn1nc(C)c(C(=O)c2ccc(C(F)(F)F)c(-n3cc(C)cn3)c2Cl)c1O [Compound 138]
effect on crop, Rice (level) (rice): 7 (Level 7: above 80% growth control rate) | chickweed weed controlling effect (activity level) (chickweed): 10 | corn gromwell weed controlling effect (activity level) (corn gromwell): 10 | shepherd's purse weed controlling effect (activity level) (shepherd's purse): 10 | flixweed weed controlling effect (activity level) (flixweed): 10 | effect on crop, Wheat (level) (wheat [1]): 1 (Level 1: below 5% growth control rate) | weed control effect, Green foxtail (level) (foxtail): 10 | weed control effect, Rorippa indica (level) (rorippa indica): 10 | weed control effect, Indian mallow (level) (Indian mallow): 0 | weed control effect, Crab grass (level) (crab grass): 5 (Level 5: above 60% growth control rate) | weed control effect, Echinochloa (level) (echinochloa): 10 | weed control effect, Bidens bipinnata (level) (bidens bipinnata): 5 (Level 5: above 60% growth control rate) | Wheat (activity level, crop damage) (wheat [2]; [3]): 1 (Level 1: below 5% growth control rate)

effect on crop, Rice (level) (rice): 10 | effect on crop, Corn (level) (corn): 0 | effect on crop, Wheat (level) (wheat [1]): 0
Compound: CCc1nn(C)c(O)c1C(=O)c1ccc(C(F)(F)F)c(-n2cc(C)cn2)c1Cl [Compound 140]
chickweed weed controlling effect (activity level) (chickweed): 10 | corn gromwell weed controlling effect (activity level) (corn gromwell): 10 | shepherd's purse weed controlling effect (activity level) (shepherd's purse): 10 | flixweed weed controlling effect (activity level) (flixweed): 10 | weed control effect, Green foxtail (level) (foxtail): 7 (Level 7: above 80% growth control rate) | weed control effect, Rorippa indica (level) (rorippa indica): 10 | weed control effect, Indian mallow (level) (Indian mallow): 10 | weed control effect, Crab grass (level) (crab grass): 1 (Level 1: below 5% growth control rate) | weed control effect, Echinochloa (level) (echinochloa): 8 (Level 8: above 90% growth control rate) | weed control effect, Bidens bipinnata (level) (bidens bipinnata): 8 (Level 8: above 90% growth control rate) | Wheat (activity level, crop damage) (wheat [2]; [3]): 0

effect on crop, Rice (level) (rice): 10 | effect on crop, Corn (level) (corn): 0
Compound: CCc1nn(C)c(OC(=O)c2cn(C)nc2C)c1C(=O)c1ccc(C(F)(F)F)c(-n2cc(C)cn2)c1Cl [Compound 141]
chickweed weed controlling effect (activity level) (chickweed): 10 | corn gromwell weed controlling effect (activity level) (corn gromwell): 10 | shepherd's purse weed controlling effect (activity level) (shepherd's purse): 10 | flixweed weed controlling effect (activity level) (flixweed): 10 | effect on crop, Wheat (level) (wheat [1]): 1 (Level 1: below 5% growth control rate) | weed control effect, Green foxtail (level) (foxtail): 7 (Level 7: above 80% growth control rate) | weed control effect, Rorippa indica (level) (rorippa indica): 10 | weed control effect, Indian mallow (level) (Indian mallow): 9 (Level 9: above 95% growth control rate) | weed control effect, Crab grass (level) (crab grass): 3 (Level 3: above 20% growth control rate) | weed control effect, Echinochloa (level) (echinochloa): 9 (Level 9: above 95% growth control rate) | weed control effect, Bidens bipinnata (level) (bidens bipinnata): 7 (Level 7: above 80% growth control rate) | Wheat (activity level, crop damage) (wheat [2]; [3]): 1 (Level 1: below 5% growth control rate)
